Data as given in PubChem BioAssay (NCI).
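Following 48 hours of exposure in 96-well plates, responses at five concentrations were used to interpolate endpoints linearly. The concentration for full growth arrest is given as TGI.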

These compounds were tested on A498 renal (assay: inhibition of tumour cell growth, NCI panel, 48 h).
In the case of `COc1ccc(N/N=C2\CCOc3ccc(C)cc3C2=O)cc1`, the TGI was over 100 µM. Compound `NC(N)=N/N=C/c1c(-c2ccc(N)cc2)nc2sccn12` has a TGI of 68.2 µM. For `CCCCCCc1cc2cc(-c3csc(CC#N)n3)c(=O)oc2cc1O`, the TGI was over 100 µM. With `Nn1c(-c2ccccc2)nn(C(=O)c2ccccc2)c1=O` the TGI was over 100 µM. With `O=c1[nH]c(Nc2cccc(CC(F)(F)F)c2)nc2nc[nH]c12` the TGI was over 100 µM. `Nc1nc(SCCc2ccccc2)c2[nH]cnc2n1` gave a TGI of 61 µM. Compound `COc1ccc(C2CC(c3c(O)ccc4ccccc34)=NN2C(C)=O)cc1OC` (stereo not drawn) has a TGI of 63.4 µM. Compound `COc1ccc2cc(NC(=O)N/N=C\c3ccc([N+](=O)[O-])cc3)ccc2c1` has a TGI of over 100 µM. `C[C@@H]1CC[C@]2(C(=O)O)CC[C@]3(C)C(=CC[C@@H]4[C@@]5(C)CC[C@H](O)C(C)(C)[C@@H]5CC[C@]43C)[C@@H]2[C@]1(C)O` showed a TGI of 33.3 µM. Work on `CN1CCc2cc(N)cc3c2C1Cc1ccc(O)c(O)c1-3` (stereo not drawn) yielded a TGI of over 100 µM. With `O=C1CCCSC(=O)N1Cc1ccccc1` the TGI was over 100 µM. `COC(=O)c1c(C)cccc1C1CN=NC12Cc1ccc(C)cc1C2=O` (stereo not drawn) showed a TGI of over 100 µM. With `CCCN(C(=O)c1ccccc1)C(C#N)c1ccc(C(C#N)N(CCC)C(=O)c2ccccc2)cc1` (stereo not drawn) the TGI was over 100 µM. Compound `COC(=O)c1ccccc1CC1Cc2ccc3c(c2C1=O)CCCC3` (stereo not drawn) has a TGI of over 100 µM. Work on `c1ccc(N=c2sc3ccccc3nc2Nc2ccccc2)cc1` yielded a TGI of over 100 µM. `CCOC(=O)c1csc(NC(=O)CN2CCOCC2)n1` gave a TGI of over 100 µM. Compound `O=C1/C(=C/c2ccccc2)N=C2Sc3c(nc[nH]c3=O)N12` has a TGI of over 100 µM. `C=CC1(C)CCC2C(=CCC3C2(C)CC(O)C(O)C3(C)COC2OC(C(=O)O)C(O)C(O)C2O)C1` (stereo not drawn) (tested in a mixture with another compound) gave a TGI of over 100 µM. `N#Cc1c(N2CCCC2)ncn(-c2ccccc2)c1=O` gave a TGI of over 100 µM. `N#CC1(C#N)N[C@@H](c2ccsc2)[C@H]2C(=O)N(c3ccccc3)C(=O)[C@H]21` gave a TGI of over 100 µM. Work on `O=[N+]([O-])c1ccc2c(c1)/C(=N/N=C1c3ccccc3Cc3ccccc31)c1cc([N+](=O)[O-])cc([N+](=O)[O-])c1-2` yielded a TGI of 18.2 µM. `Cc1ccc([N+](=O)[O-])cc1NC1=NCCO1` was tested, and the TGI was over 100 µM. `O=c1ccc(-c2ccccc2)n[nH]1` was tested, and the TGI was over 100 µM. Compound `CCOC(=O)C(SCCO)C(C(=O)OCC)n1cnc2c(=O)[nH]c(NC(C)=O)nc21` (stereo not drawn) has a TGI of over 100 µM. `C#CCNC(CS)C(=O)O` (stereo not drawn) showed a TGI of over 100 µM. For `Cc1ccc(N=NC(=Nc2ccccc2)c2ccc(N(CCC#N)CCC#N)cc2)cc1`, the TGI was over 100 µM. `Cc1ccccc1C(=O)N1CCc2c([nH]c3ccccc23)C1` showed a TGI of 51.4 µM. For `COc1ccc2c(c1)/C(=C/CCN(C)C)c1ccccc1S2`, the TGI was over 100 µM. Work on `NS(=O)(=O)c1ccc2c(c1)OCCOCCOCCOCCO2` yielded a TGI of over 100 µM. In the case of `COC(=O)C([C@H](NC1(c2ccccc2)c2ccccc2-c2ccccc21)C(=O)OC)N(NC(=O)OCc1ccccc1)C(=O)OCc1ccccc1` (mixture of isomers), the TGI was over 100 µM.

These compounds were tested on MDA-MB-231 breast (assay: inhibition of tumour cell growth, NCI panel, 48 h).
In the case of `COc1cc(C(=O)N(C(=S)OCc2ccccn2)c2ccccc2)cc(OC)c1OC`, the TGI was over 100 µM. For `CCCCCCCCCCCCCCNC(=O)CCC(NC(=O)c1ccc(N(C)Cc2cnc3nc(N)nc(N)c3n2)cc1)C(=O)NCCCCCCCCCCCCCC` (stereo not drawn), the TGI was over 44.8 µM. `COc1ccc(N/N=C2\CCOc3ccc(C)cc3C2=O)cc1` gave a TGI of over 100 µM. `NC(N)=N/N=C/c1c(-c2ccc(N)cc2)nc2sccn12` was tested, and the TGI was 48.4 µM. `CCCCCCc1cc2cc(-c3csc(CC#N)n3)c(=O)oc2cc1O` gave a TGI of 55.2 µM. `COc1cc(Br)cc2cc(-c3cn4ccsc4n3)c(=O)oc12` showed a TGI of 80.9 µM. `Nn1c(-c2ccccc2)nn(C(=O)c2ccccc2)c1=O` gave a TGI of over 100 µM. Compound `O=c1[nH]c(Nc2cccc(CC(F)(F)F)c2)nc2nc[nH]c12` has a TGI of over 100 µM. For `Nc1nc(SCCc2ccccc2)c2[nH]cnc2n1`, the TGI was over 100 µM. With `COc1ccc(C2CC(c3c(O)ccc4ccccc34)=NN2C(C)=O)cc1OC` (stereo not drawn) the TGI was 56.5 µM. `COc1cc2c(c(OC)c1OC)C(=O)[C@@H]1[C@H]2N1C(N)=O` was tested, and the TGI was over 100 µM. `COc1ccc2cc(NC(=O)N/N=C\c3ccc([N+](=O)[O-])cc3)ccc2c1` showed a TGI of over 100 µM. `C[C@@H]1CC[C@]2(C(=O)O)CC[C@]3(C)C(=CC[C@@H]4[C@@]5(C)CC[C@H](O)C(C)(C)[C@@H]5CC[C@]43C)[C@@H]2[C@]1(C)O` showed a TGI of 22.6 µM. `CN1CCc2cc(N)cc3c2C1Cc1ccc(O)c(O)c1-3` (stereo not drawn) was tested, and the TGI was over 100 µM. `O=C1CCCSC(=O)N1Cc1ccccc1` gave a TGI of over 100 µM. `COC(=O)c1c(C)cccc1C1CN=NC12Cc1ccc(C)cc1C2=O` (stereo not drawn) was tested, and the TGI was over 100 µM. In the case of `CCCN(C(=O)c1ccccc1)C(C#N)c1ccc(C(C#N)N(CCC)C(=O)c2ccccc2)cc1` (stereo not drawn), the TGI was over 100 µM. `COC(=O)c1ccccc1CC1Cc2ccc3c(c2C1=O)CCCC3` (stereo not drawn) showed a TGI of over 100 µM. `c1ccc(N=c2sc3ccccc3nc2Nc2ccccc2)cc1` was tested, and the TGI was over 100 µM. `CCOC(=O)c1csc(NC(=O)CN2CCOCC2)n1` was tested, and the TGI was over 100 µM. Compound `O=C1/C(=C/c2ccccc2)N=C2Sc3c(nc[nH]c3=O)N12` has a TGI of over 100 µM. Compound `C=CC1(C)CCC2C(=CCC3C2(C)CC(O)C(O)C3(C)COC2OC(C(=O)O)C(O)C(O)C2O)C1` (stereo not drawn) (tested in a mixture with another compound) has a TGI of over 100 µM. `N#Cc1c(N2CCCC2)ncn(-c2ccccc2)c1=O` was tested, and the TGI was over 100 µM.
